The source of these data is PMC12454493, “Insight on novel sulfamoylphenyl pyrazole derivatives as anticancer carbonic anhydrase inhibitors” (Molecular Diversity, 2024).

Format in all cases: cell-based
The subject of one test is LOX IMVI. As to the kind of experiment: NCI-60 one-dose SRB screen (Melanoma). As to conditions: Homo sapiens, single dose 10 µM, 48 h, read-out: Growth inhibition percent (GI %).
In another test the test system is PC-3. As to the kind of experiment: NCI-60 one-dose SRB screen (Prostate Cancer). Particulars: Homo sapiens, single dose 10 µM, 48 h, read-out: Growth inhibition percent (GI %).
Another test has as its system DU-145. As to the kind of experiment: NCI-60 one-dose SRB screen (Prostate Cancer). As to conditions: Homo sapiens, single dose 10 µM, 48 h, read-out: Growth inhibition percent (GI %).
The test system of the next test is MDA-MB-468. Nature of the test: NCI-60 one-dose SRB screen (Breast Cancer). As to conditions: Homo sapiens, single dose 10 µM, 48 h, read-out: Growth inhibition percent (GI %).
The subject of a further test is HS 578T. As to the kind of experiment: NCI-60 one-dose SRB screen (Breast Cancer). As to conditions: Homo sapiens, single dose 10 µM, 48 h, read-out: Growth inhibition percent (GI %).
The next test has as its system MCF-7. As to the kind of experiment: NCI-60 one-dose SRB screen (Breast Cancer). As to conditions: Homo sapiens, MCF7, single dose 10 µM, 48 h, read-out: Growth inhibition percent (GI %).
A further test deals with T-47D. As to the kind of experiment: NCI-60 one-dose SRB screen (Breast Cancer). As to conditions: Homo sapiens, T47D, single dose 10 µM, 48 h, read-out: Growth inhibition percent (GI %).
The next test concerns BT-549. As to the kind of experiment: NCI-60 one-dose SRB screen (Breast Cancer). As to conditions: Homo sapiens, single dose 10 µM, 48 h, read-out: Growth inhibition percent (GI %).
For another test, the system named is MDA-MB-231/ATCC. Nature of the test: NCI-60 one-dose SRB screen (Breast Cancer). As to conditions: Homo sapiens, single dose 10 µM, 48 h, read-out: Growth inhibition percent (GI %).
The subject of the next test is OVCAR-8. Nature of the test: NCI-60 one-dose SRB screen (Ovarian cancer). Particulars: Homo sapiens, single dose 10 µM, 48 h, read-out: Growth inhibition percent (GI %).
The next test has as its system OVCAR-5. Nature of the test: NCI-60 one-dose SRB screen (Ovarian cancer). As to conditions: Homo sapiens, single dose 10 µM, 48 h, read-out: Growth inhibition percent (GI %).
Another test relates to OVCAR-4. As to the kind of experiment: NCI-60 one-dose SRB screen (Ovarian cancer). As to conditions: Homo sapiens, single dose 10 µM, 48 h, read-out: Growth inhibition percent (GI %).
The subject of another test is OVCAR-3. As to the kind of experiment: NCI-60 one-dose SRB screen (Ovarian cancer). As to conditions: Homo sapiens, single dose 10 µM, 48 h, read-out: Growth inhibition percent (GI %).
In the next test the test system is SK-OV-3. As to the kind of experiment: NCI-60 one-dose SRB screen (Ovarian cancer). Particulars: Homo sapiens, single dose 10 µM, 48 h, read-out: Growth inhibition percent (GI %).
Another test concerns IGROV1. Nature of the test: NCI-60 one-dose SRB screen (Ovarian cancer). Particulars: Homo sapiens, IGROV-1, single dose 10 µM, 48 h, read-out: Growth inhibition percent (GI %).
The subject of a further test is NCI/ADR-RES. Nature of the test: NCI-60 one-dose SRB screen (Ovarian cancer). Particulars: Homo sapiens, single dose 10 µM, 48 h, read-out: Growth inhibition percent (GI %).

Where only a bound is given, the exact number is not on record here.

Turning to `COc1ccc(-c2nn(-c3ccc(S(N)(=O)=O)cc3)cc2C(=O)OCC(=O)Nc2nnc(S(N)(=O)=O)s2)cc1` [Compound 6c, 2-Oxo-2-[(5-sulfamoyl-1,3,4-thiadiazol-2-yl)amino] ethyl 3-(4-methoxyphenyl)-1-(4-sulfamoylphenyl)-1H-pyrazole-4-carboxylate], the inhibition at 10 µM with LOX IMVI is 8.56%; in the test with PC-3, below 5%; in the test on DU-145, below 5%; in the test on MDA-MB-468, 7.76%; with HS 578T, 12.8%; in the test with MCF-7 it was 15.8%. Further, the inhibition at 10 µM with T-47D, in the test with BT-549, with MDA-MB-231/ATCC, in the test on OVCAR-8, with OVCAR-5 and in the test with OVCAR-4 was below 5% throughout. Also, the inhibition at 10 µM in the test on OVCAR-3, in the test with SK-OV-3, with IGROV1 and with NCI/ADR-RES was below 5% each time.

As for `NC(=S)NNC(=O)c1cn(-c2ccc(S(N)(=O)=O)cc2)nc1-c1ccccc1` [Compound 9a, 2-[3-Phenyl-1-(4-sulfamoylphenyl)-1H-pyrazole-4-carbonyl] hydrazine-1-carbothioamide], the inhibition at 10 µM in the test on LOX IMVI, in the test with PC-3, in the test with DU-145, in the test on MDA-MB-468, in the test on HS 578T and with MCF-7 was below 5% each time. The inhibition at 10 µM in the test on T-47D, with BT-549, in the test on MDA-MB-231/ATCC, with OVCAR-8, in the test on OVCAR-5 and in the test with OVCAR-4 was below 5% in each case. Besides, the inhibition at 10 µM with OVCAR-3, in the test on SK-OV-3, with IGROV1 and in the test on NCI/ADR-RES was below 5% throughout.

Regarding `Cc1ccc(-c2nn(-c3ccc(S(N)(=O)=O)cc3)cc2C(=O)NNC(N)=S)cc1` [Compound 9b, 2-[1-(4-Sulfamoylphenyl)-3-(p-tolyl)-1H-pyrazole-4-carbonyl] hydrazine-1-carbothioamide], the inhibition at 10 µM with LOX IMVI, with PC-3, with DU-145, in the test on MDA-MB-468, in the test on HS 578T and in the test with MCF-7 was below 5% throughout. Further, the inhibition at 10 µM in the test with T-47D, in the test with BT-549, with MDA-MB-231/ATCC, with OVCAR-8, in the test on OVCAR-5 and with OVCAR-4 was below 5% throughout. The inhibition at 10 µM in the test on OVCAR-3, in the test with SK-OV-3, in the test with IGROV1 and with NCI/ADR-RES was below 5% each time.

Consider `NC(=S)NNC(=O)c1cn(-c2ccc(S(N)(=O)=O)cc2)nc1-c1ccc(Br)cc1` [Compound 9d, 2-[3-(4-Bromophenyl)-1-(4-sulfamoylphenyl)-1H-pyrazole-4-carbonyl] hydrazine-1-carbothioamide], for which the inhibition at 10 µM is below 5% in the test on LOX IMVI; below 5% in the test with PC-3; below 5% in the test with DU-145; below 5% with MDA-MB-468; 6.72% in the test with HS 578T; below 5% in the test on MCF-7. The inhibition at 10 µM in the test on T-47D was 7.04%; in the test on BT-549, below 5%; in the test on MDA-MB-231/ATCC it was below 5%; in the test with OVCAR-8, below 5%; in the test with OVCAR-5, below 5%; with OVCAR-4 it was below 5%. Further, the inhibition at 10 µM in the test on OVCAR-3 is below 5%; in the test with SK-OV-3, below 5%; in the test on IGROV1 it was 20.2%; in the test with NCI/ADR-RES, below 5%.

Regarding `CS(=O)(=O)c1ccc(-c2nn(-c3ccc(S(N)(=O)=O)cc3)cc2C(=O)NNC(N)=S)cc1` [Compound 9e, 2-[3-(4-(Methylsulfonyl)phenyl)-1-(4-sulfamoylphenyl)-1H-pyrazole-4-carbonyl] hydrazine-1-carbothioamide], the inhibition at 10 µM in the test on LOX IMVI was below 5%; with PC-3, below 5%; in the test with DU-145, below 5%; in the test on MDA-MB-468, 7.21%; in the test on HS 578T, 7.37%; in the test on MCF-7, below 5%. Also, the inhibition at 10 µM with T-47D, with BT-549, in the test on MDA-MB-231/ATCC, with OVCAR-8, in the test on OVCAR-5 and with OVCAR-4 was below 5% throughout. The inhibition at 10 µM with OVCAR-3, in the test with SK-OV-3, with IGROV1 and in the test on NCI/ADR-RES was below 5% throughout.

Consider `Cc1ccc(-c2nn(-c3ccc(S(N)(=O)=O)cc3)cc2-c2nnc(N)s2)cc1` [Compound 10, 4-[4-(5-Amino-1,3,4-thiadiazol-2-yl)-3-(p-tolyl)-1H-pyrazol-1-yl] benzenesulfonamide], for which the inhibition at 10 µM was 11.8% with LOX IMVI; 8.5% with PC-3; below 5% in the test on DU-145; 5.43% with MDA-MB-468; 5.02% in the test with HS 578T; 15.8% in the test on MCF-7. Moreover, the inhibition at 10 µM is 13.2% in the test on T-47D; 11.2% in the test with BT-549; below 5% in the test with MDA-MB-231/ATCC; below 5% with OVCAR-8; below 5% in the test on OVCAR-5; below 5% with OVCAR-4. In addition, the inhibition at 10 µM in the test with OVCAR-3, in the test with SK-OV-3, in the test on IGROV1 and in the test on NCI/ADR-RES was below 5% each time.

Consider `Cc1ccc(-c2nn(-c3ccc(S(N)(=O)=O)cc3)cc2-c2n[nH]c(=S)[nH]2)cc1` [Compound 11, 4-[4-(5-Mercapto-1H-1,2,4-triazol-3-yl)-3-(p-tolyl)-1H-pyrazol-1-yl] benzenesulfonamide], for which the inhibition at 10 µM in the test on LOX IMVI is 13.5%; with PC-3, below 5%; in the test with DU-145, below 5%; with MDA-MB-468 it was below 5%; in the test on HS 578T, below 5%; in the test with MCF-7, 6.49%. For the same compound, the inhibition at 10 µM in the test with T-47D is 21.2%; in the test on BT-549, below 5%; in the test on MDA-MB-231/ATCC, below 5%; with OVCAR-8 it was below 5%; in the test with OVCAR-5, below 5%; with OVCAR-4, 10.1%. In addition, the inhibition at 10 µM in the test on OVCAR-3 is 11.4%; in the test with SK-OV-3 it was below 5%; in the test with IGROV1, below 5%; with NCI/ADR-RES, below 5%.
